Test results as given in patent publication US20190381061A1, “LOCAL ANESTHESIA PAIN-RELIEVING TIME-DELAY AGENT” (priority 2013, published 2019).

Columns and labels:
[1] = test system: peripheral nerve medulla; conditions: cited from earlier work
[2] = test system: patient; assay: Local anesthesia for clinical surgical operations: composition combined with a local anesthetic and injected locally; format: in vivo, human
Description: The above components are injected into 4 ml of 0.375% bupivacaine, and a 0.9% saline solution is added so that the total volume became 8 ml, and then, the composition is subcutaneously injected into both eyebrow regions.
The above components were injected into 30 ml of 1% prilocain hydrochloride according to the ratio, and 0.9% […] was added so that the total volume became 60 ml, and then, the composition was subcutaneously, intramuscularly and subperiosteally injected into the operation site of a patient using a 3 cm needle, and as the result, it was concluded that onset time of anesthesia is shortened to 60 seconds from 5 minutes of the existing case wherein only lidocaine was injected, and the duration of anesthetic action is prolonged from the existing 2 hours to 40 days. […].
The above components were injected into 20 ml of 0.5% procaine, and a 0.9% saline solution was added so that the total volume became 40 ml, and then, the composition was sequentially injected subcutaneously, intramusculary and intraperitoneally along the appendectomy scar of the patient using a 3 cm needle, and as the result, it was concluded that onset time of anesthetic is 60 seconds, and the duration of pain relief continues for 40 days. […]. […]

## CN(C)c1ccc2nc3ccc(=[N+](C)C)cc-3sc2c1 [Methyleneblue]
[1]
  concentration at which it may directly injure peripheral nerve medulla to cause irreparable nerve injury: > 0.03%

## CCN(CC)CC(=O)Nc1c(C)cccc1C [lidocaine]
[2]; existing case, without the composition of the example
  duration of anesthetic action / pain relief, existing: 2 h
[2]; only the local anesthetic injected, without the composition
  onset time of anesthesia, existing case: 5 min
